The results in this text go back to US11993594B2, “IRAK inhibitors and method for making and using” (Rigel Pharmaceuticals, Inc., priority 2016, dated 2024).

Where two headings read alike, the source gives them in different places.

For assay [1], the system named is LPS induced IL-23 (p19/p40) in DC cells. The assay is described as follows: IL23-p19 ELISA, dendritic (DC) cells differentiated from human PBMC, LPS stimulated. Type of assay: cell-based. Particulars: LPS 1 μg/ml, 18 hours, 10 pt. On the procedure:
Compound Screening Using DC Cells
Human PBMC cells (400 million) obtained from the vendor were transferred into a T-175 flask containing 15 ml RPMI media (10% FBS) and incubate for 2 hours at 37° C. After 2 hours, the media including floating cells was aspirated out carefully and 12 ml of fresh RPMI media (10% FBS) containing GMCSF (100 ng/ml) and IL4 (20 ng/ml) was added, and the flask was kept in a 37° C. incubator for 7 days.
After 3 days, fresh GMCSF (100 ng/ml) and IL4 (20 ng/ml) were added to the flask and the incubation continued. After 7 days, the fully differentiated cells were harvested by spinning down (1200 rpm/5 min) and aspirating the media. The cells were suspended in fresh RPMI media (10% FBS) containing 50 ng/ml IFNγ (1000 U/ml) and then plated (50K/well in 100 μl) onto a white clear bottom 96 well plate and left in a 37° C. incubator for 24 hours.
After 24 hours incubation, 100 μl of RPMI media was added containing 2× concentrated test compound per well to the above cell-culture media (final concentration becomes 1×) and the plates were pre-incubated for 1 hour at 37° C. before stimulating with LPS.
After 1 hour compound pre-incubation, 10 μl per well of 20× concentrated LPS solution in RPMI media was added to give a final concentration of 1 μg/ml. The mixture was shaken and incubated the plates at 37° C. for an additional 18 hours.
155 μl of the supernatant was harvested from each well carefully (without the tip touching the bottom of the well) and to the remaining 50 μl/well of the cell culture plate was added 50 μl of Cell Titer Glo reagent. The mixture was incubated for 1-2 minutes on a shaker and the plate was read for luminescence intensity to determine the compound cytotoxicity. The cell culture supernatant collected above was used to carry out IL23 ELISA (65 μl—Supernatant) and IL10 ELISA (90 μl—Supernatant) as described below.
Human IL-23 (p19/p40) ELISA Protocol (e-Biosciences)
To 10.5 ml PBS add 50 μl of anti-IL23 (p19) was added capture antibody (2.5 μg/ml). The mixture was mixed well and 100 μl of the coating solution was added to each well of the 96 well white plates from Pierce. The wells were covered and incubated overnight at 4° C.
The anti-IL23 (p19)-antibody-coated plates were washed 2× using TBST (use plate washer) and blocked using 200 μl of 0.5% Casein for 1.5 to 2 hours at room temperature with shaking.
The plates were washed 2× using TBST and the supernatant was transferred (65 μl/well) to the above pre-blocked/IL23(p19)-antibody-coated 96 well plate, and incubated at room temperature for 1.5 hours with shaking.
The plates were washed 4× using TBST (plate washer) and 100 μl/well detection antibody solution prepared from 2 μl of biotin labeled anti-IL-12 (p40/p70) antibody in 11 ml 1% BSA/PBS solution (1-5000 dilution) was added. The plates were incubated for 1 hour with shaking at Room temperature.
Again, the plates were washed 4× with TBST and 100 μl of HRP labeled Streptavidin (R&D Systems) solution (10 μl/10 ml 1% BSA solution) was added, and the plates were incubated at room temperature for another 45 minutes with shaking.
After 45 minutes, the plates were washed with TBST 4× and 100 μl/well Super Signal ELISA Pico Chemiluminescent Substrate from Pierce (3.5 ml A+3.5 ml B+3.5 ml MQ water) was added. The plates were shaken for 1-2 minutes then read on a plate reader. […]
In general terms: ELISA stands for enzyme-linked immunosorbent assay.

In assay [2] the test system is LPS Induced IL23p19 in THP-1 Cells. In words: LPS Induced IL23p19 in THP-1 Cells (with IFNγ Primed) Assay. In kind it is cell-based, human. Particulars: THP-1 cells primed with IFNγ 50 ng/mL, LPS 1 ug/mL, 18 hours, 10 pt, read-out: IL23-p19 ELISA, THP1-IFNγ, LPS, 10 pt EC50. An excerpt:
LPS Induced IL23p19 in THP-1 Cells (with IFNγ Primed) Assay
THP-1 Cells (ATCC, Cat #TIB-202), Dimethyl Sulfoxide (DMSO) (Sigma-Aldrich, Cat #D2650), RPMI 1640 (Cellgro, Cat #10-040-CM), Fetal Bovine Serum (Sigma, Cat #F4135), Albumin From Bovine Serum (BSA) (Sigma-Aldrich, Cat #A7906), LPS (Serotype K-235, Sigma, Product Number L 2143), IFNγ (Peprotech, Cat #300-02) Capture antibody: Human IL-23p19 ELISA (e-Bioscience, Cat. #14-7238-85), Detection antibody: Primary Mouse Biotinylated anti-human IL-12(p40/p70) (e-Bioscience, Cat. #13-7129-85), Secondary HRP-conjugated Streptavidin (R&D Systems, Cat #DY998), 1×PBST Washing Buffer (PBS-Tween tablet) (VWR International, Cat #80058-558), ELISA Blocking Buffer (PBS with 1% BSA), ELISA Dilution Buffer (PBS with 1% BSA), 384 Well Flat-Bottom, MaxiSorp Black Immuno Plates (Thermo Scientific, Cat #12-565-346), 384 Well Flat-Bottom, White Tissue Culture Plates (Thermo Scientific, Cat #12-565-343), Super Signal ELISA Pico Chemiluminescent Substrate (Thermo Scientific, Cat #37070), Cell Titer Glo reagent (Promega, Cat #G7573), Positive control, IKK2VI inhibitor (Calbiochem, Cat #401483), AquaMax 4000 plate washer (Molecular Devices), Luminometer, Wallac Victor2 1420 Multilabel Counter.
On day 1, 50K/well THP-1 cells were seeded and primed with IFNγ (50 ng/mL) in 384-well plates for about 18 hours in RPMI media with 10% FBS. On day 2, the compound was serially diluted in DMSO from 5 mM in 3-fold dilutions, and then diluted 1:125 in RPMI media with 10% FBS. 50 μL/well 2× compound was added to 50 μL/well THP-1 cells (with IFNγ primed) in duplicate in 384 well tissue culture plates. The cells were pre-incubated with compound for 1 hour at 37° C., 5% CO2 before addition of 10 μL/well 11×LPS to give a final concentration of 1 ug/mL LPS. Day 3, after stimulation for 18 hours at 37° C., 5% CO2, the assay plate was centrifuged and 70 μL/well supernatant was harvested. IL-23p19 protein in 70 µL/well of supernatant was measured by sandwich ELISA, and 25 μl/well Cell Titer Glo reagent was added to the remaining cells to measure compound toxicity.
Human IL-23p19 Sandwich ELISA:
Maxisorp immuno ELISA plates were pre-coated with 25 μL/well of anti-IL-23p19 capture antibody (2.5 ug/mL) in PBS overnight at room temperature. After washing with 1×PBST, the plates were blocked using 100 μL/well of 1% BSA in PBS for 2 hours at room temperature. The plates were washed three times with 1×PBST and 70 μL/well supernatant were added. The plates were incubated at room temperature for 2 hours with shaking and washed three times with 1×PBST. 25 μL/well of biotin labeled anti-IL-12(p40/p70) detection antibody (100 ng/mL) in PBS with 1% BSA was added and the plates were incubated at room temperature for 2 hours with shaking. After washing three times with 1×PBST, 25 μL/well of streptavidin-HRP (1:200) in PBS with 1% BSA was added and the plates were incubated at room temperature for 20 minutes with shaking. The plates were washed three times with 1×PBST and 25 μL/well of Super Signal ELISA Pico Chemiluminescent Substrate were added. The plates were read with a luminometer, and the chemiluminescence values were entered into Athena (Rigel) for curve fitting, EC50 calculation, and database storage. […]

As a reminder, the EC50 is the concentration at which the effect is half-maximal. In the case of `CCO[C@H]1CC[C@H](n2cc(NC(=O)c3coc(-c4cn[nH]c4)n3)c(-c3cnccn3)n2)CC1` [Compound I-1, N-(1-((1r,4r)-4-ethoxycyclohexyl)-3-(pyrazin-2-yl)-1H-pyrazol-4-yl)-2-(1H-pyrazol-4-yl)oxazole-4-carboxamide], the EC50 amounted to 33.4 nM in assay [1] (Table 1, IFNγ 50 ng/ml) and 4.8 nM in assay [2] (Homo sapiens, Table 1).

Consider `O=C(Nc1cn([C@H]2CC[C@H](N3CCOCC3)CC2)nc1-c1ncccn1)c1coc(-c2cn[nH]c2)n1` [Compound I-2, N-(1-((1r,4r)-4-morpholinocyclohexyl)-3-(pyrimidin-2-yl)-1H-pyrazol-4-yl)-2-(1H-pyrazol-4-yl)oxazole-4-carboxamide], for which the EC50 in assay [1] (Table 1, IFNγ 50 ng/ml) is 84.2 nM; in assay [1] (Table 2, IFNγ 50 ng/ml) it was 84.2 nM; in assay [2] (Table 1), 34.3 nM; in assay [2] (Table 2), 34.3 nM.

With `CCO[C@H]1CC[C@H](n2cc(NC(=O)c3coc(-c4cn[nH]c4)n3)c(-c3ncccn3)n2)CC1` [Compound I-3, N-(1-((1r,4r)-4-ethoxycyclohexyl)-3-(pyrimidin-2-yl)-1H-pyrazol-4-yl)-2-(1H-pyrazol-4-yl)oxazole-4-carboxamide], the EC50 in assay [1] (Table 1, IFNγ 50 ng/ml) came out at 3.3 nM; in assay [1] (Table 2, IFNγ 50 ng/ml), 3.3 nM; in assay [2] (Table 1) it was 8.9 nM; in assay [2] (Table 2) it was 8.9 nM.

As to `O=C(Nc1cn([C@H]2CC[C@H](N3CCOCC3)CC2)nc1-c1cccc(C(F)F)n1)c1coc(-c2cn[nH]c2)n1` [Compound I-4, N-(3-(6-(difluoromethyl)pyridin-2-yl)-1-((1r,4r)-4-morpholinocyclohexyl)-1H-pyrazol-4-yl)-2-(1H-pyrazol-4-yl)oxazole-4-carboxamide], the EC50 in assay [1] (Table 1, IFNγ 50 ng/ml) came out at 20.1 nM; in assay [1] (Table 2, IFNγ 50 ng/ml) it was 20.1 nM; in assay [2] (Table 1), 6.3 nM; in assay [2] (Table 2), 6.3 nM.

Turning to `C[C@@H]1CN(C2CCC(n3cc(NC(=O)c4coc(-c5cn[nH]c5)n4)c(-c4cccc(C(F)F)n4)n3)CC2)C[C@H](C)O1` (stereo partly drawn) [Compound I-5, N-(3-(6-(difluoromethyl)pyridin-2-yl)-1-((1R,4r)-4-((2R,6S)-2,6-dimethylmorpholino)cyclohexyl)-1H-pyrazol-4-yl)-2-(1H-pyrazol-4-yl)oxazole-4-carboxamide], the EC50 in assay [1] (Table 1, IFNγ 50 ng/ml) was found to be 10.2 nM; in assay [1] (Table 2, IFNγ 50 ng/ml) it was 10.2 nM; in assay [2] (Table 1), 12 nM; in assay [2] (Table 2), 12 nM.

`CCO[C@H]1CC[C@H](n2cc(NC(=O)c3coc(-c4cn[nH]c4)n3)c(-c3ccncn3)n2)CC1` [Compound I-6, N-(1-((1r,4r)-4-ethoxycyclohexyl)-3-(pyrimidin-4-yl)-1H-pyrazol-4-yl)-2-(1H-pyrazol-4-yl)oxazole-4-carboxamide]: the EC50 in assay [2] (Table 1) and in assay [2] (Table 2) was 19.6 nM in each case.

For `O=C(Nc1cn([C@H]2CC[C@H](N3CCOCC3)CC2)nc1-c1nc(C(F)(F)F)ccc1F)c1coc(-c2cn[nH]c2)n1` [Compound I-7, N-(3-(3-fluoro-6-(trifluoromethyl)pyridin-2-yl)-1-((1r,4r)-4-morpholinocyclohexyl)-1H-pyrazol-4-yl)-2-(1H-pyrazol-4-yl)oxazole-4-carboxamide], the EC50 in assay [1] (Table 1, IFNγ 50 ng/ml) came to 75.7 nM; in assay [1] (Table 2, IFNγ 50 ng/ml) it was 75.7 nM; in assay [2] (Table 1) it was 28 nM; in assay [2] (Table 2), 28 nM.

In the case of `CCOC1CCC(n2ncc(NC(=O)c3coc(-c4cn[nH]c4)n3)c2-c2nc(F)ccc2F)CC1` [Compound I-14, N-(5-(3,6-difluoropyridin-2-yl)-1-((1r,4R)-4-ethoxycyclohexyl)-1H-pyrazol-4-yl)-2-(1H-pyrazol-4-yl)oxazole-4-carboxamide], the EC50 in assay [2] (Table 1) and in assay [2] (Table 2) was 9120 nM each time.

As to `Cn1cc(NC(=O)c2coc(-c3cnn(CC4CC4)c3)n2)c(-c2ccccn2)n1` [Compound I-19, 2-(1-(cyclopropylmethyl)-1H-pyrazol-4-yl)-N-(1-methyl-3-(pyridin-2-yl)-1H-pyrazol-4-yl)oxazole-4-carboxamide], in assay [2] (Table 3), the EC50 was 20300 nM.

In the case of `O=C(Nc1cn([C@H]2CC[C@H](N3CCOCC3)CC2)nc1-c1nc(F)ccc1F)c1coc(-c2cn[nH]c2)n1` [Compound I-37, N-(3-(3,6-difluoropyridin-2-yl)-1-((1r,4r)-4-morpholinocyclohexyl)-1H-pyrazol-4-yl)-2-(1H-pyrazol-4-yl)oxazole-4-carboxamide], the EC50 in assay [2] (Homo sapiens, Table 1) came out at 73.3 nM.
